The text below walks through data of publication PMC9694048 (Pharmaceutics, 2022).

In brackets after ≈: the same amount, converted by molar mass. Where a name gives a salt, the structure may show the parent alone. Read-outs that look alike come from different tables or passages of the source. Where a SMILES comes first, the peptide text is derived from it. [ ]: non-standard residue; d: D form.

In one data set the test system is S. aureus/MRSA. Description: MIC by broth microdilution. It is filed as cell-based. The note with it: 35 °C, 24 h, duplicates. On the procedure:
The minimum inhibitory concentrations (MIC) of cationic peptides were determined using the broth microdilution method in a 96-well microtiter plate (Cellstar, Greiner Bio-One, Austria). The inoculum was prepared by suspending overnight grown isolated colonies selected from a Tryptic Soy Agar (TSA) plate in water for injection. The concentration of the inoculum suspension was adjusted to match that of the 0.5 McFarland’s standard (10^8 CFU/mL) and further diluted 150-fold by adding 50 μL of suspension into 7.5 mL of Mueller−Hinton broth to obtain an inoculum of 10^5 to 10^6 CFU/mL. Lyophilized peptide obtained from the manufacturer was dissolved in water and adjusted to a final concentration of 0.5 to 256 μg/mL in twofold serial dilutions. A total of 100 μL of the solution was then mixed with an equal volume of bacterial inoculum prepared before in 96-well plates. The plates were then incubated at 35 °C for 24 h, and the optical density at 600 nm (OD600) was determined using a TECAN microplate reader.

Data set [1] relates to WERI-Rb1 cells. Description: MTS cell viability assay. It counts as cell-based. The procedure:
(§1) WERI-Rb1 and ARPE-19 cells were seeded at a concentration of 2 × 10^3 cells/well in a 96-well plate and cultured at 37 °C in a humidified 5% CO2 incubator. After seeding the cells, they were treated with various concentrations of CAPs and further incubated for 48 h at 37 °C. Cell viability was assessed after 48 h using the Cell-Titer 96® Aqueous One Solution Cell Proliferation Assay (cat#G3582, Promega, WI, USA) according to the manufacturer’s protocol and described earlier. Briefly, 10 µL of MTS reagent was added to each well and the cells were incubated at 37 °C for 2 h before the experiment end time points. Percentage cell viability was calculated from the absorbance measured at 490 nm using a TECAN microplate reader.

Data set [2] deals with WERI-Rb1 cells. Description: Western blot of DNA damage markers. It is filed as cell-based. The note with it: IC50 dose; for γH2A.X phosphorylation at Ser139 (immunoblot): 48 h, Western blot (Figure 4a). The procedure: WERI-Rb1 cells were seeded in 6-well cell culture plates (1 × 10^6 cells/well), incubated at 37 °C in a humidified 5% CO2 incubator, and were treated with IC50 doses of topotecan, HC3. or HC5. After 48 h, cells were lysed in RIPA buffer (20 mM Tris pH 8.0, 0.1% SDS, 150 mM NaCl, 0.08% sodium deoxycholate, 1% NP40 supplemented with one tablet of protease inhibitor and phosphatase inhibitor (Roche). 20 µg of total protein was loaded per lane and separated by SDS-PAGE. The separated proteins on the gel were transferred to PVDF membrane and were probed for antibodies against γH2A.X (1:1000, cat#2595, Cell Signaling Technology, Danvers, MA, USA), p-γH2A.X (Ser139) (1:1000, cat#2577, Cell Signaling Technology, Danvers, MA, USA), p-BCL2(Ser70) (1:1000, cat#2827, Cell Signaling Technology, Danvers, MA, USA), BCL2 (1:1000, cat#2872, Cell Signaling Technology, Danvers, MA, USA), Bax (1:1000, cat#2772, Cell Signaling Technology, Danvers, MA, USA), p-ATM(Ser1981) (1:1000, cat#5883, Cell Signaling Technology, Danvers, MA, USA), ATM (1:1000, cat#2873, Cell Signaling Technology, Danvers, MA, USA), p-Chk2(Thr68) (1:1000, cat#2661, Cell Signaling Technology, Danvers, MA, USA), Chk2 ([…], cat#2662, Cell Signaling Technology, Danvers, MA, USA), p-p53(Ser15) (1:1000, cat#9284, Cell Signaling Technology, Danvers, MA, USA), p-p53(Ser46) (1:1000, cat#2521, Cell Signaling Technology, Danvers, MA, USA), p53 (1:1000, cat#2524, Cell Signaling Technology, Danvers, MA, USA), Cleaved caspase 9 (1:1000, cat#9505, Cell Signaling Technology, Danvers, MA, USA), Cleaved caspase 3 (1:1000, cat#9661, Cell Signaling Technology, Danvers, MA, USA), Cleaved PARP (1:1000, cat#5625, Cell Signaling Technology, Danvers, MA, USA), and GAPDH (1:2000, cat#ab9485, Abcam, Cambridge, UK). Proteins of interest were detected with HRP-conjugated sheep anti-mouse (1:5000, cat#7076, Cell Signaling Technology, Danvers, MA, USA) or anti-rabbit IgG antibody (1:5000, cat#7074, Cell Signaling Technology, Danvers, MA, USA) and visualized with the Clarity ECL Western blotting substrate (Bio-Rad, Hercules, CA, USA) according to the provided protocol.
(A western blot detects proteins with antibodies after separation by electrophoresis.)

The subject of data set [3] is WERI-Rb1 cells. Description: Trypan blue viability assay. It is filed as cell-based. The note with it: WERI-Rb1, 48 h treatment. The procedure: WERI-Rb1 cells (1 × 10^5) were treated with increasing concentrations (7.7 µM, 36.25 µM, 72.5 µM, 145 µM, or 290 µM) of a panel of six HC peptides (HC1, HC2, HC3, HC4, HC5, and HC6). Nocodazole (10 µM) treatment was used as a positive control for the study, with untreated cells as the negative control. All treatments were performed at 37 °C in a 90% humidified incubator with 5% CO2 for 48 h. After 48 h post-treatment, cells were stained with 0.4% trypan blue (cat#15250061, Invitrogen, Waltham, MA, USA) and the number of live and dead cells for each time point was estimated using the hemocytometer cell counting protocol. The percentage of cell viability was calculated by dividing the live cell count by the total cell count.

Data set [4] deals with ARPE-19 cells. Description: MTS cell viability assay. It counts as cell-based, Human. The note with it: ARPE-19, MTS, 48 h (Figure 2c). The procedure:
as §1
For orientation: Tetrazolium assays rely on reduction of a dye to a coloured formazan, in cell work by metabolically active cells.

Another data set deals with WERI-Rb1 tumor spheroids. Briefly: Tumor spheroid area by high content imaging. It is filed as cell-based. The note with it: 7-day-old WERI-Rb1 spheroids, IC50 dose, 48 h, n = 9 per condition. On the procedure:
Spheroids were developed using the hanging drop protocol on low attachment U-bottom 96-well plate. The single cell suspension of 5 × 10^2 WERI-Rb1 cells in 100 µL medium was loaded in each well of a 96-well plate. The cells were cultured at 37 °C in a 90% humidified incubator with 5% CO2 for 7 days for the generation of tight and regular tumor spheroids. Seven-day-old spheroids (n = 9 per condition) were treated with 100 μL of freshly prepared medium containing an IC50 dose of topotecan (Figure S1), HC3, or HC5. The cultures were then incubated for 48 h prior to high content analysis (HCA) and immunofluorescence (IF) assays.
WERI-Rb1 cells were stained with orange plasma membrane stain as per the manufacturer’s protocol (Cell Mask Orange Plasma membrane stain; cat#C10045, Invitrogen, Waltham, MA, USA) prior to the development of spheroids. The stained WERI-Rb1 cells were used for spheroid formation using the hanging drop protocol on a low attachment U-bottom 96-well plate. […] The images were acquired using the automated high-content imaging system, IN Cell Analyzer 6000 (GE Healthcare, Singapore), equipped with a laser-based confocal platform having a 2× objective. The automatically captured single well imaging of spheroids and a Z stack of 11 images were separated by 50 µm total 500 µm depth for spheroids, using maximum intensity projection (MIP) acquisition and single-channel filter at 567 nm. To reduce data storage and image analysis time, we analyzed 2D projection images of tumor spheroids for multiple treatment conditions. Spheroid area and shape were automatically quantified by HCA using the IN-Cell 6000 software (GE Healthcare, Singapore). The mean area (µm^2) of each spheroid was calculated to elucidate the drug/peptide response.

Data set [5] relates to ARPE-19 cells. Description: Western blot of apoptotic markers in cytoplasmic and mitochondrial fractions. It counts as cell-based, Human. The note with it: ARPE-19, 48-h exposure, cytoplasmic and mitochondrial fractions (Figure 5c).

As to `CCCCCCCCCC(=O)N[C@@H](Cc1c[nH]c2ccccc12)C(=O)N[C@H](CC(N)=O)C(=O)N[C@@H](CC(=O)O)C(=O)N[C@@H]1C(=O)NCC(=O)N[C@@H](CCCN)C(=O)N[C@@H](CC(=O)O)C(=O)N[C@H](C)C(=O)N[C@@H](CC(=O)O)C(=O)NCC(=O)N[C@H](CO)C(=O)N[C@@H]([C@H](C)CC(=O)O)C(=O)N[C@@H](CC(=O)c2ccccc2N)C(=O)O[C@@H]1C` [Daptomycin], the Minimum inhibitory concentration in the data set on S. aureus/MRSA (strain MRSA 9808R, Mueller-Hinton broth) was found to be 0.31 µM (≈ 0.502 µg/mL); in the data set with S. aureus/MRSA (strain MRSA 21595, Mueller-Hinton broth) it was 0.31 µM (≈ 0.502 µg/mL); in the data set with S. aureus/MRSA (strain MRSA 42412, Mueller-Hinton broth), 0.31 µM (≈ 0.502 µg/mL); in the data set with S. aureus/MRSA (strain MRSA 43300, Mueller-Hinton broth) it was 0.31 µM (≈ 0.502 µg/mL); in the data set with S. aureus/MRSA (strain MRSA 68004, Mueller-Hinton broth) it was 0.31 µM (≈ 0.502 µg/mL); in the data set on S. aureus/MRSA (strain MRSA 700699, Mueller-Hinton broth) it was 0.62 µM (≈ 1 µg/mL). Moreover, the Minimum inhibitory concentration is 0.31 µM (≈ 0.502 µg/mL) with S. aureus/MRSA (strain MRSA +B32:L426506, Mueller-Hinton broth); 4.94 µM (≈ 8.01 µg/mL) in the data set with S. aureus/MRSA (strain MRSA BAA38, Mueller-Hinton broth); 0.31 µM (≈ 0.502 µg/mL) in the data set on S. aureus/MRSA (strain MRSA DB57964/04, Mueller-Hinton broth); 2.47 µM (≈ 4 µg/mL) in the data set on S. aureus/MRSA (strain S. aureus 4299, Mueller-Hinton broth); 0.31 µM (≈ 0.502 µg/mL) in the data set on S. aureus/MRSA (strain S. aureus 4400R, Mueller-Hinton broth); 0.31 µM (≈ 0.502 µg/mL) in the data set on S. aureus/MRSA (strain S. aureus 4583R, Mueller-Hinton broth). Moreover, the Minimum inhibitory concentration with S. aureus/MRSA (strain S. aureus 6538, Mueller-Hinton broth) was determined as 0.15 µM (≈ 0.243 µg/mL); in the data set with S. aureus/MRSA (strain S. aureus 29213, Mueller-Hinton broth), 0.15 µM (≈ 0.243 µg/mL); with S. aureus/MRSA (strain S. aureus 29737, Mueller-Hinton broth), 0.31 µM (≈ 0.502 µg/mL).

`N=C(N)NCCC[C@@H](NC(=O)[C@H](CCCCN)NC(=O)[C@@H](CCCNC(=N)N)NC(=O)[C@H](CCCCN)NC(=O)[C@@H](CCCNC(=N)N)NC(=O)[C@H](CCCCN)NC(=O)[C@@H](CCCNC(=N)N)NC(=O)[C@H](CCCCN)NC(=O)[C@@H](CCCNC(=N)N)NC(=O)[C@H](CCCCN)NC(=O)[C@@H](CCCNC(=N)N)NC(=O)[C@@H](N)CCCCN)C(=O)O` [HC3] (H-K[dR]K[dR]K[dR]K[dR]K[dR]K[dR]-OH; N-terminus and C-terminus assumed) showed an IC50 in the data set with WERI-Rb1 cells [1] (WERI-Rb1 cells, 48 h, dose used for spheroid treatment) of 77.2 µL/mL. Besides, the “phosphorylation of ATM and CHK2 (immunoblot)” value in the data set with WERI-Rb1 cells [2] (48-h treatment, Western blot (Figure 4b)) is “induced phosphorylation of ATM (ataxia-telangiectasia mutated) at Ser1981 and CHK2 at Thr68”. Moreover, in the data set on WERI-Rb1 cells [2], the “γH2A.X phosphorylation at Ser139 (immunoblot)” value is given as “did not show any activation of γH2A.X(Ser139)”. Further, the “cell death at a high dose” value in the data set on WERI-Rb1 cells [3] (high dose (dose not specified)) was 60%. Moreover, the “cell death at a low dose” value with WERI-Rb1 cells [3] (low dose (dose not specified)) was found to be 40%. Also, the “cytotoxic effect on non-malignant ARPE-19 cells” value with ARPE-19 cells [4] is given as “did not display any cytotoxic effect”. For the same compound, the “effect on Rb spheroid size” value in the data set on WERI-Rb1 tumor spheroids is “effectively shrunk and decreased the Rb spheroid size”. Besides, the “apoptotic events in ARPE-19 cells (Bax, cytochrome c)” value in the data set on ARPE-19 cells [5] is “did not trigger any apoptotic events”.

On to `COc1cccc2c1C(=O)c1c(O)c3c(c(O)c1C2=O)C[C@@](O)(C(=O)CO)C[C@@H]3O[C@H]1C[C@H](N)[C@H](O)[C@H](C)O1` [doxorubicin], for which the IC50 in the data set on WERI-Rb1 cells [1] (WERI-Rb1, MTS, 48 h exposure, (Figure S4), read-out: IC50) turned out to be 2500 nM.

Consider `CC[C@@]1(O)C(=O)OCc2c1cc1n(c2=O)Cc2cc3c(CN(C)C)c(O)ccc3nc2-1` [topotecan, Topotecan hydrochloride hydrate], for which, in the data set with WERI-Rb1 cells [1] (WERI-Rb1, MTS, 48 h exposure, 5 nM to 50 nM (Figure S3), read-out: IC50), the IC50 came out at 10 nM. The “γH2A.X phosphorylation at Ser139 (immunoblot)” value in the data set with WERI-Rb1 cells [2] is given as “induction of γH2A.X phosphorylation at Ser139”. In the data set with WERI-Rb1 tumor spheroids, the “effect on Rb spheroid size” value was “disrupted Rb spheroids”. In addition, in the data set on ARPE-19 cells [5], the “apoptotic events in ARPE-19 cells (Bax, cytochrome c)” value is on record as “induced Bax expression in the mitochondrial fraction of ARPE-19”.
